Source: ChEMBL document CHEMBL3885881, “DrugMatrix”

Species on record: Rattus norvegicus
Experiment: DrugMatrix - Regimen: Daily Repeat
Format: toxicity, organism-based, Sprague-Dawley
Set-up: regimen Daily Repeat, gender Male, age 6-8 weeks
Conditions: in vivo, po, route oral GAVAGE, vehicle .5 % CMC; for ABSOLUTE BASOPHIL / ABSOLUTE EOSINOPHIL / ABSOLUTE LYMPHOCYTE / ABSOLUTE MONOCYTE / ABSOLUTE SEGMENTED NEUTROPHIL / BASOPHIL / EOSINOPHIL / ERYTHROCYTE COUNT / HEMATOCRIT / HEMOGLOBIN / LEUKOCYTE COUNT / LYMPHOCYTE / MEAN CORPUSCULAR HEMOGLOBIN / MEAN CORPUSCULAR HEMOGLOBIN CONCENTRATION / MEAN CORPUSCULAR VOLUME / MONOCYTE / NEUTROPHIL / NUCLEATED RED BLOOD CELLS / PLATELET COUNT: tissue Blood; for ALANINE AMINOTRANSFERASE / ALBUMIN / ALKALINE PHOSPHATASE / ASPARTATE AMINOTRANSFERASE / BLOOD UREA NITROGEN / CARBON DIOXIDE / CHLORIDE / CHOLESTEROL / CREATINE PHOSPHOKINASE / CREATININE / GLUCOSE / LACTATE DEHYDROGENASE / LIPASE / PHOSPHORUS / POTASSIUM / SODIUM / TOTAL BILIRUBIN / TOTAL PROTEIN / URIC ACID: tissue Plasma
[1] = 40 mg/kg, 120 h, dose level Low, time 5 day
[2] = 1200 mg/kg, 72 h, dose level High, time 3 day
[3] = 1200 mg/kg, 120 h, dose level High, time 5 day

C[C@@](Cc1ccc(O)c(O)c1)(NN)C(=O)O.O [CARBIDOPA]
ABSOLUTE BASOPHIL [1]: 0 CELLS/uL
ABSOLUTE EOSINOPHIL [1]: 155.33 CELLS/uL
ABSOLUTE LYMPHOCYTE [1]: 12037.67 CELLS/uL
ABSOLUTE MONOCYTE [1]: 0 CELLS/uL
ABSOLUTE SEGMENTED NEUTROPHIL [1]: 1407 CELLS/uL
BASOPHIL [1]: 0%
EOSINOPHIL [1]: 1%
ERYTHROCYTE COUNT [1]: 5.47 x10E6/uL
HEMATOCRIT [1]: 34.83%
HEMOGLOBIN [1]: 13.23 G/DL
LEUKOCYTE COUNT [1]: 13.6 x10E3/uL
LYMPHOCYTE [1]: 88.33%
MEAN CORPUSCULAR HEMOGLOBIN [1]: 24.23 pg
MEAN CORPUSCULAR HEMOGLOBIN CONCENTRATION [1]: 38 G/DL
MEAN CORPUSCULAR VOLUME [1]: 63.7 fL
MONOCYTE [1]: 0%
NEUTROPHIL [1]: 10.67%
NUCLEATED RED BLOOD CELLS [1]: 0 /100WBC
PLATELET COUNT [1]: 1237.67 x10E3/uL
ALANINE AMINOTRANSFERASE [1]: 28.67 u/L
ALBUMIN [1]: 4.33 G/DL
ALKALINE PHOSPHATASE [1]: 366.33 u/L
ASPARTATE AMINOTRANSFERASE [1]: 83 u/L
BLOOD UREA NITROGEN [1]: 16 mg/dL
CARBON DIOXIDE [1]: 26 mmol/L
CHLORIDE [1]: 102.33 MEQ/L
CHOLESTEROL [1]: 65.67 mg/dL
CREATINE PHOSPHOKINASE [1]: 277.33 u/L
CREATININE [1]: 0.2 mg/dL
GLUCOSE [1]: 155.67 mg/dL
LACTATE DEHYDROGENASE [1]: 251 u/L
LIPASE [1]: 8.33 u/L
PHOSPHORUS [1]: 12.53 mg/dL
POTASSIUM [1]: 6.15 MEQ/L
SODIUM [1]: 144.4 MEQ/L
TOTAL BILIRUBIN [1]: 0.2 mg/dL
TOTAL PROTEIN [1]: 6.03 G/DL
URIC ACID [1]: 1.4 mg/dL
ABSOLUTE BASOPHIL [2]: 0 CELLS/uL
ABSOLUTE EOSINOPHIL [2]: 309.67 CELLS/uL
ABSOLUTE LYMPHOCYTE [2]: 11320 CELLS/uL
ABSOLUTE MONOCYTE [2]: 0 CELLS/uL
ABSOLUTE SEGMENTED NEUTROPHIL [2]: 1103.67 CELLS/uL
BASOPHIL [2]: 0%
EOSINOPHIL [2]: 2.33%
ERYTHROCYTE COUNT [2]: 5.55 x10E6/uL
HEMATOCRIT [2]: 35.43%
HEMOGLOBIN [2]: 13.47 G/DL
LEUKOCYTE COUNT [2]: 12.73 x10E3/uL
LYMPHOCYTE [2]: 88.67%
MEAN CORPUSCULAR HEMOGLOBIN [2]: 24.3 pg
MEAN CORPUSCULAR HEMOGLOBIN CONCENTRATION [2]: 38.03 G/DL
MEAN CORPUSCULAR VOLUME [2]: 63.83 fL
MONOCYTE [2]: 0%
NEUTROPHIL [2]: 9%
NUCLEATED RED BLOOD CELLS [2]: 0 /100WBC
PLATELET COUNT [2]: 1345.33 x10E3/uL
ALANINE AMINOTRANSFERASE [2]: 8.67 u/L
ALBUMIN [2]: 4.63 G/DL
ALKALINE PHOSPHATASE [2]: 300.67 u/L
ASPARTATE AMINOTRANSFERASE [2]: 64.67 u/L
BLOOD UREA NITROGEN [2]: 22.33 mg/dL
CARBON DIOXIDE [2]: 26 mmol/L
CHLORIDE [2]: 99 MEQ/L
CHOLESTEROL [2]: 92.33 mg/dL
CREATINE PHOSPHOKINASE [2]: 315 u/L
CREATININE [2]: 0.24 mg/dL
GLUCOSE [2]: 171.33 mg/dL
LACTATE DEHYDROGENASE [2]: 80 u/L
LIPASE [2]: 8.67 u/L
PHOSPHORUS [2]: 12.73 mg/dL
POTASSIUM [2]: 6.79 MEQ/L
SODIUM [2]: 143.93 MEQ/L
TOTAL BILIRUBIN [2]: 0.17 mg/dL
TOTAL PROTEIN [2]: 6.5 G/DL
URIC ACID [2]: 1.6 mg/dL
ABSOLUTE BASOPHIL [3]: 0 CELLS/uL
ABSOLUTE EOSINOPHIL [3]: 0 CELLS/uL
ABSOLUTE LYMPHOCYTE [3]: 11666 CELLS/uL
ABSOLUTE MONOCYTE [3]: 86.67 CELLS/uL
ABSOLUTE SEGMENTED NEUTROPHIL [3]: 847.33 CELLS/uL
BASOPHIL [3]: 0%
EOSINOPHIL [3]: 0%
ERYTHROCYTE COUNT [3]: 6.03 x10E6/uL
HEMATOCRIT [3]: 37.47%
HEMOGLOBIN [3]: 14.13 G/DL
LEUKOCYTE COUNT [3]: 12.6 x10E3/uL
LYMPHOCYTE [3]: 92.33%
MEAN CORPUSCULAR HEMOGLOBIN [3]: 23.43 pg
MEAN CORPUSCULAR HEMOGLOBIN CONCENTRATION [3]: 37.7 G/DL
MEAN CORPUSCULAR VOLUME [3]: 62.1 fL
MONOCYTE [3]: 0.67%
NEUTROPHIL [3]: 7%
NUCLEATED RED BLOOD CELLS [3]: 0 /100WBC
PLATELET COUNT [3]: 1184.67 x10E3/uL
ALANINE AMINOTRANSFERASE [3]: 6.67 u/L
ALBUMIN [3]: 4.57 G/DL
ALKALINE PHOSPHATASE [3]: 323.33 u/L
ASPARTATE AMINOTRANSFERASE [3]: 44 u/L
BLOOD UREA NITROGEN [3]: 20 mg/dL
CARBON DIOXIDE [3]: 28 mmol/L
CHLORIDE [3]: 101.33 MEQ/L
CHOLESTEROL [3]: 58.67 mg/dL
CREATINE PHOSPHOKINASE [3]: 151.67 u/L
CREATININE [3]: 0.21 mg/dL
GLUCOSE [3]: 157.67 mg/dL
LACTATE DEHYDROGENASE [3]: 98 u/L
LIPASE [3]: 8 u/L
PHOSPHORUS [3]: 11.57 mg/dL
POTASSIUM [3]: 6.41 MEQ/L
SODIUM [3]: 146.5 MEQ/L
TOTAL BILIRUBIN [3]: 0.17 mg/dL
TOTAL PROTEIN [3]: 6.27 G/DL
URIC ACID [3]: 1.5 mg/dL
